In patent US5015631A, “Repairing agent for cells and tissues” (MECT Corporation, priority 1987, dated 1991):

Tested on: mice
Assay: Simple acute toxicity test by intravenous injection in mice
Type: in vivo, Male ddy mice
Conditions: for Final death rate / Number of death with the elapse of time: 3 mice
Method: Simple acute toxicity test:
Simple acute toxicity tests of the materials were conducted by intraveous injections for the mice as follows:
Lithium, potassium, barium and magnesium N-acetylneuraminates (products of MECT Corporation) were used.
Weight of the animal in the initial stage of the test: 17.7 to 21.1 g
Number of mice for each level: 3
(3) Room temperature: 23±1° C., humidity: 55±7%
(4) Route of administration: intravenous injection
The material was dissolved in the physiological saline. The concentration of the dose solution was adjusted so that 0.2 ml of the dose solution was administered per 20 g of the body weight of the mice. The solution was given to a tail of each mouse by the intravenous injection. The dose was 500, 1000 or 2000 mg/kg.
The general symptoms and death were observed from immediately after the administration to seven days after the administration.

SMILES | Final death rate (500 mg/kg i.v.) | Number of death with the elapse of time (500 mg/kg i.v., 1 hr) | Number of death with the elapse of time (500 mg/kg i.v., 3 hrs) | Number of death with the elapse of time (500 mg/kg i.v., 6 hrs) | Number of death with the elapse of time (500 mg/kg i.v., 24 hrs) | Number of death with the elapse of time (500 mg/kg i.v., 2 days) | Number of death with the elapse of time (500 mg/kg i.v., 3 days) | Number of death with the elapse of time (500 mg/kg i.v., 4 days) | Number of death with the elapse of time (500 mg/kg i.v., 5 days) | Number of death with the elapse of time (500 mg/kg i.v., 6 days) | Number of death with the elapse of time (500 mg/kg i.v., 7 days) | Number of death with the elapse of time (1000 mg/kg i.v., 1 hr) | Number of death with the elapse of time (1000 mg/kg i.v., 3 hrs) | Number of death with the elapse of time (1000 mg/kg i.v., 6 hrs) | Number of death with the elapse of time (1000 mg/kg i.v., 24 hrs) | Number of death with the elapse of time (1000 mg/kg i.v., 2 days) | Number of death with the elapse of time (1000 mg/kg i.v., 3 days) | Number of death with the elapse of time (1000 mg/kg i.v., 4 days) | Number of death with the elapse of time (1000 mg/kg i.v., 5 days) | Number of death with the elapse of time (1000 mg/kg i.v., 6 days) | other results
CC(=O)N[C@H]1[C@H]([C@H](O)[C@H](O)CO)OC(O)(C(=O)O)C[C@@H]1O (stereo partly shown) [Barium N-acetylneuraminate] | 3/3 | 3 | 0 | 0 | 0 | 0 | 0 | 0 | 0 | 0 | 0 | 3 | 0 | 0 | 0 | 0 | 0 | 0 | 0 | 0 | Number of death with the elapse of time (1000 mg/kg i.v., 7 days): 0; Number of death with the elapse of time (2000 mg/kg i.v., 1 hr): 3; Number of death with the elapse of time (2000 mg/kg i.v., 3 hrs): 0; Number of death with the elapse of time (2000 mg/kg i.v., 6 hrs): 0; Number of death with the elapse of time (2000 mg/kg i.v., 24 hrs): 0; Number of death with the elapse of time (2000 mg/kg i.v., 2 days): 0; Number of death with the elapse of time (2000 mg/kg i.v., 3 days): 0; Number of death with the elapse of time (2000 mg/kg i.v., 4 days): 0; Number of death with the elapse of time (2000 mg/kg i.v., 5 days): 0; Number of death with the elapse of time (2000 mg/kg i.v., 6 days): 0; Number of death with the elapse of time (2000 mg/kg i.v., 7 days): 0
CC(=O)N[C@H]1[C@H]([C@H](O)[C@H](O)CO)OC(O)(C(=O)[O-])C[C@@H]1O.[Li+] (stereo partly shown) [Lithium N-acetylneuraminate] | 0/3 | 0 | 0 | 0 | 0 | 0 | 0 | 0 | 0 | 0 | 0 | 0 | 0 | 0 | 0 | 0 | 0 | 0 | 0 | 0 | Final death rate (1000 mg/kg i.v.): 0/3; Number of death with the elapse of time (1000 mg/kg i.v., 7 days): 0; Final death rate (2000 mg/kg i.v.): 0/3; Number of death with the elapse of time (2000 mg/kg i.v., 1 hr): 0; Number of death with the elapse of time (2000 mg/kg i.v., 3 hrs): 0; Number of death with the elapse of time (2000 mg/kg i.v., 6 hrs): 0; Number of death with the elapse of time (2000 mg/kg i.v., 24 hrs): 0; Number of death with the elapse of time (2000 mg/kg i.v., 2 days): 0; Number of death with the elapse of time (2000 mg/kg i.v., 3 days): 0; Number of death with the elapse of time (2000 mg/kg i.v., 4 days): 0; Number of death with the elapse of time (2000 mg/kg i.v., 5 days): 0; Number of death with the elapse of time (2000 mg/kg i.v., 6 days): 0; Number of death with the elapse of time (2000 mg/kg i.v., 7 days): 0
CC(=O)N[C@H]1[C@H]([C@H](O)[C@H](O)CO)OC(O)(C(=O)O)C[C@@H]1O (stereo partly shown) [Magnesium N-acetylneuraminate] | 0/3 | 0 | 0 | 0 | 0 | 0 | 0 | 0 | 0 | 0 | 0 |  |  |  |  |  |  |  |  |  | 
CC(=O)N[C@H]1[C@H]([C@H](O)[C@H](O)CO)OC(O)(C(=O)[O-])C[C@@H]1O.[K+] (stereo partly shown) [Potassium N-acetylneuraminate] | 0/3 | 0 | 0 | 0 | 0 | 0 | 0 | 0 | 0 | 0 | 0 | 3 | 0 | 0 | 0 | 0 | 0 | 0 | 0 | 0 | Final death rate (1000 mg/kg i.v.): 3/3; Number of death with the elapse of time (1000 mg/kg i.v., 7 days): 0; Death (1000 mg/kg or 2000 mg/kg i.v.): all of the three mice died; Final death rate (2000 mg/kg i.v.): 3/3; Number of death with the elapse of time (2000 mg/kg i.v., 1 hr): 3; Number of death with the elapse of time (2000 mg/kg i.v., 3 hrs): 0; Number of death with the elapse of time (2000 mg/kg i.v., 6 hrs): 0; Number of death with the elapse of time (2000 mg/kg i.v., 24 hrs): 0; Number of death with the elapse of time (2000 mg/kg i.v., 2 days): 0; Number of death with the elapse of time (2000 mg/kg i.v., 3 days): 0; Number of death with the elapse of time (2000 mg/kg i.v., 4 days): 0; Number of death with the elapse of time (2000 mg/kg i.v., 5 days): 0; Number of death with the elapse of time (2000 mg/kg i.v., 6 days): 0; Number of death with the elapse of time (2000 mg/kg i.v., 7 days): 0
